Series [1] in a line: Cytotoxicity against human L-02 cells assessed as decreased cell viability at 50 uM after 24 hrs by MTT assay relative to control. Type of series: cell-based, L02. The note with it: read-out: INH. Background: Formazan colour is commonly taken as a measure of viable cells.
Series [2] has as its system SH-SY5Y. Description: Inhibition of H2O2-induced intracellular ROS production in human SH-SY5Y cells pretreated for 6 hrs followed by H2O2 addition measured after 18 hrs by DCFH-DA assay. The format is functional, cell-based. The note with it: dose 1-50 µM, time 24.0 hrs.
Series [3] is described as follows: Cytotoxicity against rat PC-12 cells assessed as cell viability at 50 uM by MTT assay relative to control. The format is cell-based. The following applies: read-out: Activity.
Series [4] deals with BV-2. The series can be described thus: Antiinflammatory activity in LPS-stimulated mouse BV-2 cells assessed as decrease in cox-2 level at 1 to 10 uM preincubated for 1 hr followed by LPS addition measured after 24 hrs by Western blot analysis. The format is functional, cell-based. The note with it: dose 1-10 µM, time 25.0 hrs. In general terms: Immunoblotting shows a protein as a band on a membrane.

Series [5] is described as follows: Apparent permeability from basolateral to apical side in MDCK2-MDR1 measured upto 120 mins. The format is ADME, Canis lupus familiaris, MDCK-II. The note with it: dog.
The subject of series [6] is BV-2. Description: Antiinflammatory activity in LPS-stimulated mouse BV-2 cells assessed as decrease in IL-1beta level at 1 to 10 uM preincubated for 1 hr followed by LPS addition measured after 24 hrs by ELISA. Type of series: functional, cell-based. The note with it: dose 1-10 µM, time 25.0 hrs. (In general: ELISA stands for enzyme-linked immunosorbent assay.)
The target of series [7] is T1, Glycogen synthase kinase-3 beta (Homo sapiens, UniProt P49841). Description: Inhibition of GSK-3beta in human SH-SY5Y cells assessed as decrease in amyloid beta-induced Tau hyperphosphorylation at Ser396 pretreated for 1 hr followed Amyloid beta addition measured after 6 hrs by Western blot analysis. Type of series: cell-based. The note with it: dose 5-15 µM, time 7.0 hrs.
Target sequence in this assay (P49841 whole entry, looked up): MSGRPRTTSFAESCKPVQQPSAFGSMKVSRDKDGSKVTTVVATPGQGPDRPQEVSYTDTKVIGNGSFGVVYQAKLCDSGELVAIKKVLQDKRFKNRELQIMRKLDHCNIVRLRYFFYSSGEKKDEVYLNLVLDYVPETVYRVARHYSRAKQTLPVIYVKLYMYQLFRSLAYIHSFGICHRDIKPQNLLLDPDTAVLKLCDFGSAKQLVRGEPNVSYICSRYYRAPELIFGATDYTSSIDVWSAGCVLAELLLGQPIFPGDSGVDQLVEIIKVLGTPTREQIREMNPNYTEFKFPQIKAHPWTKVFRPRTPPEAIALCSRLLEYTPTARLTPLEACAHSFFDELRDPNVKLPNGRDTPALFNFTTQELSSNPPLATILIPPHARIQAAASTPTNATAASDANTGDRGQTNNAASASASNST

Series [8] relates to BV-2. Description: Antiinflammatory activity in LPS-stimulated mouse BV-2 cells assessed as decrease in iNOS level at 1 to 10 uM preincubated for 1 hr followed by LPS addition measured after 24 hrs by Western blot analysis. The format is functional, cell-based. The note with it: dose 1-10 µM, time 25.0 hrs.
Series [9] deals with PC-12. Description: Neuroprotective activity against H2O2-induced cytotoxicity in rat PC12 cells assessed as increase in cell viability at 10 uM preincubated for 3 hrs followed by H2O2 addition and measured after 24 hrs by MTT assay (reference value: 24.8 to 41.7%). Type of series: functional.
In series [10] the test system is HepG2. Description: Increase in glucose consumption in human HepG2 cells at 20 uM after 24 hrs by glucose oxidase assay (reference value: 1.36 mM). Type of series: functional.
Series [11] deals with PC-12. The series can be described thus: Inhibition of H2O2-induced intracellular ROS production in rat PC-12 cells pretreated for 6 hrs followed by H2O2 addition measured after 18 hrs by DCFH-DA assay. Type of series: functional, cell-based. The note with it: dose 1-50 µM, time 24.0 hrs.
The nature of series [12]: Antioxidant activity assessed as DPPH radical scavenging activity after 2 hrs by microplate method. The following applies: dose 1-1000 µM. The format is functional.
In series [13] the test system is PC-12. The series can be described thus: Neuroprotective activity against H2O2-induced cytotoxicity in rat PC12 cells assessed as increase in cell viability at 30 uM preincubated for 3 hrs followed by H2O2 addition and measured after 24 hrs by MTT assay (reference value: 24.8 to 41.7%). The format is functional.
Series [14] has as its target T1, Glycogen synthase kinase-3 beta. The series can be described thus: Inhibition of GSK3beta (unknown origin) measured after 40 mins by ADP-Glo assay.
Target sequence in this assay (P49841 whole entry): as the sequence (P49841 whole entry, looked up) above
Series [15] in a line: Cytotoxicity against rat PC-12 cells assessed as cell viability at 30 uM by MTT assay relative to control. The note with it: read-out: Activity. Type of series: cell-based.
Series [16] is described as follows: Apparent permeability from apical to basolateral side in MDCK2-MDR1 measured upto 120 mins. Type of series: ADME, Canis lupus familiaris. The following applies: dog, mdck-ii, 2 h.
The subject of series [17] is BV-2. Description: Anti-neuroinflammation in mouse BV2 cells assessed as inhibition of LPS-induced NO production preincubated for 1 hr followed by LPS addition measured after 24 hrs by Griess reagent based assay. Type of series: functional, cell-based.
Series [18] relates to BV-2. Description: Antiinflammatory activity in LPS-stimulated mouse BV-2 cells assessed as decrease in TNF-alpha level at 1 to 10 uM preincubated for 1 hr followed by LPS addition measured after 24 hrs by ELISA. Type of series: functional, cell-based. The following applies: dose 1-10 µM, time 25.0 hrs.
Series [19] in a line: Efflux ratio of apparent permeability across basolateral to apical membrane to apical to basolateral membrane in MDCK2-MDR1 measured upto 120 mins. Type of series: ADME, tissue-based, Canis lupus familiaris, MDCK-II. The following applies: dog.
Series [20] has as its system HepG2. The series can be described thus: Cytotoxicity against human HepG2 cells assessed as cell viability at 10 to 50 uM after 24 hrs by MTT assay. Type of series: cell-based. The note with it: hepg2, 24 h, dose 10-50 µM.
The subject of series [21] is HepG2. Description: Increase in glucose consumption in human HepG2 cells at 1 mM after 24 hrs by glucose oxidase assay (reference value: 1.36 mM). The format is functional.
For series [22], the system named is HepG2. Description: Increase in glucose consumption in human HepG2 cells at 20 uM after 24 hrs by glucose oxidase assay. The format is functional, cell-based.
In series [23] the test system is Mus musculus. The series can be described thus: Cognitive enhancing effect in C57BL mouse model of scopolamine-induced memory impairment assessed as time in target quadrant at 10 to 30 mg/kg, po administered for 7 days and measured after 30 mins at 5th day of training session by Morris water maze test. Type of series: functional, organism-based. The following applies: dose 10-30 mg/kg, time 7.0 day.

Series [24] concerns L02. The series can be described thus: Cytotoxicity against human L-02 cells assessed as decreased cell viability at 50 uM after 24 hrs by MTT assay. The following applies: l02, 24 h. Type of series: cell-based.
In series [25] the test system is Mus musculus. Description: Cognitive enhancing effect in C57BL mouse model of scopolamine-induced memory impairment assessed as number of virtual platform crossing at 10 to 30 mg/kg, po administered for 7 days and measured after 30 mins at 5th day of training session by Morris water maze test. The note with it: dose 10-30 mg/kg, time 7.0 day. Type of series: functional, organism-based.

Series [26] can be described thus: Effect on swimming speed in C57BL mouse model of scopolamine-induced memory impairment model at 10 to 30 mg/kg, po administered for 7 days. Type of series: ADME, organism-based. The note with it: in vivo, 168 h, dose 10-30 mg/kg, time 7 day.
The test system of series [27] is Mus musculus. Description: Cognitive enhancing effect in orally dosed C57BL mouse model of scopolamine-induced memory impairment assessed as escape latency administered for 7 days and measured after 30 mins at 4th day of training session by Morris water maze test. The note with it: dose 10-30 mg/kg, time 7.0 day. Type of series: functional, organism-based.
Series [28] in a line: Effect on body weight in C57BL mouse model of scopolamine-induced memory impairment model at 10 to 30 mg/kg, po administered for 7 days. Type of series: ADME, organism-based. The note with it: in vivo, 168 h, dose 10-30 mg/kg, time 7 day.

Each structure is given as a SMILES string. Activity calls are given as the source filed them. The rule behind the calls is not given here.

In the case of `CC(=O)c1ccc(S(=O)(=O)Nc2ccc(-c3nc(-c4ccnc(Nc5ccc(OC(F)(F)F)cc5)c4)no3)cc2)cc1`, the cytotoxicity at 24 h, 50 µM in series [1] worked out at 20%. Also, the inhibition entry in [2], in [7] and in series [11] was “Dose-dependent effect” each time. Also, the viability at 50 µM in [3] is 98.1%. The inhibition entry in [4], in series [6], in series [8] and in series [18] was “Active” throughout. The permeability in [5] (mdck-ii, 2 h) is 1.66 10^-5 cm/s; in series [16], 1.31 10^-5 cm/s. In addition, the Activity is 57.1% in [9]; 3.28 mM in series [10]; “Dose-dependent effect” in series [12]; 68.6% in [13]; “Non-Toxic” in series [20]. The figures for the IC50 in [14] and in [17] were 1.02 µM and 0.47 µM, respectively. For the same molecule, the viability at 30 µM in series [15] stood at 99.1%. In addition, the Ratio in series [19] (mdck-ii, 2 h) came to 1.27.

Consider `CN(C)C(=N)NC(=N)N` [METFORMIN], for which the Activity in series [21] turned out to be 3.28 mM.

Turning to `O=[N+]([O-])c1ccc(S(=O)(=O)Nc2ccc(-c3nc(-c4ccnc(Nc5ccc(OC(F)(F)F)cc5)c4)no3)cc2)cc1`, the viability at 50 µM in series [3] worked out at 90.5%. In addition, the values for the Activity in [9] and in [13] were 38.6% and 53.4%, respectively. The results for the IC50 in [14] and in series [17] were above 50 µM and 7.59 µM, respectively. In addition, in series [15], the viability at 30 µM stood at 98.5%. In series [22], the outcome was inactive.

For `CC(C)(C)c1ccc(S(=O)(=O)Nc2ccc(-c3nc(-c4ccnc(Nc5cccc(Cl)c5)c4)no3)cc2)cc1`, the result in [23], in series [25] and in series [22] was Active. The Activity result in series [24] was “Non-Toxic”; in [9] it was 54.3%; in [10], 3.43 mM; in series [26], “Non-Toxic”; in series [27] it was “Dose-dependent effect”; in series [12], “Dose-dependent effect”. In addition, the Activity is 64.9% in [13], “Non-Toxic” in [28] and “Non-Toxic” in series [20]. The inhibition result in [2], in [7] and in series [11] was “Dose-dependent effect” throughout. Besides, the viability at 50 µM in series [3] was 97.2%. Further, the inhibition entry in series [4], in [6], in series [8] and in series [18] was “Active” in each case. Besides, the Papp B→A at 2 h in series [5] (MDCK-MDR1, read-out: permeability) was 19.3 ×10⁻⁶ cm/s. In addition, the IC50 is 0.19 µM in series [14] and 6.94 µM in series [17]. Also, the viability at 30 µM in series [15] is 99.2%. Further, in series [16], the permeability is given as 1.89 10^-5 cm/s. Also, in series [19] (MDCK-MDR1), the efflux ratio at 2 h worked out at 1.02.

A word on the IC50: it is the concentration that inhibits the measured activity by half. The efflux ratio is the permeability from basolateral to apical divided by that in the opposite direction, in the common usage.
